Source: patent EP2857388A1, “Azoles containing sulfone” (Grünenthal GmbH, priority 2013, dated 2015)

target: T1, human B1R (Homo sapiens, UniProt P46663); assay: Functional assay at bradykinin receptor 1 (B1R): Ca2+ fluorescence (Fluo-4) in FLIPR/Novostar, antagonist mode; type: cell-based; details: test substance 10 µM; CHO K1 cells stably transfected with human B1R gene (hB1R-Zellen); agonist Lys-Des-Arg9-Bradykinin at EC80; % inhibition relative to maximal achievable inhibition; read-out: % Inhibierung (human B1R) bei 10 µM
T1 construct: expressed in transfected cells; host or cells: CHO K1 cells (Chinese Hamster Ovary), stably transfected
T1 sequence (P46663 1-353): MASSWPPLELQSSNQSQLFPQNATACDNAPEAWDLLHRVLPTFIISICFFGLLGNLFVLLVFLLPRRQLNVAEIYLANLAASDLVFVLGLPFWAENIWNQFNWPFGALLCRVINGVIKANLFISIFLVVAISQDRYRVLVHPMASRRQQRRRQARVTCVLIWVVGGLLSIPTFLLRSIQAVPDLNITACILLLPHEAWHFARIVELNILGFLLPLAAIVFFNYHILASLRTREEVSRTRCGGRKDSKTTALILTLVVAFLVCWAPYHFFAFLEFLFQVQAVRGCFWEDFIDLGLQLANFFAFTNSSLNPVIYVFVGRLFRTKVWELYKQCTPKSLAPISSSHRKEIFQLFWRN
Method in brief: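 CHO K1 cells stably expressing human B1R were loaded with Fluo-4 and preincubated 6–20 min with test compound before Lys-Des-Arg9-bradykinin at its EC80. Peak fluorescence (ex 488/em 540 nm) gave % inhibition versus maximal inhibition; IC50 from several concentrations, n=2 or 3.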

Going from `COCCN1CCC(NC(=O)Cn2cc(CS(=O)(=O)c3c(C)cc(OC)cc3C)nn2)C(C)(C)C1` (stereo not drawn) [CC-160, 2-[4-[[(4-Methoxy-2,6-dimethyl-phenyl)sulfonyl]-methyl]-1H-[1,2,3]triazol-1-yl]-N-[1-(2-methoxy-ethyl)-3,3-dimethyl-piperidin-4-yl]-acetamid] to `COc1cc(C)c(S(=O)(=O)Cc2cn(CC(=O)NC3CCN(C(C)=O)CC3(C)C)nn2)c(C)c1` (stereo not drawn) [CC-161, N-(1-Acetyl-3,3-dimethyl-piperidin-4-yl)-2-[4-[[(4-methoxy-2,6-dimethyl-phenyl)sulfonyl]-methyl]-1H-[1,2,3]triazol-1-yl]-acetamid], the inhibition at 10 µM falls from 100% to 92%.

First: COc1cc(C)c(S(=O)(=O)Cc2cn(CC(=O)NC3CCC(N4CCN(C)CC4)CC3(C)C)nn2)c(C)c1 (stereo not drawn) [CC-162, N-[2,2-Dimethyl-4-(4-methyl-piperazin-1-yl)-cyclohexyl]-2-[4-[[(4-methoxy-2,6-dimethylphenyl)sulfonyl]-methyl]-1H-[1,2,3]triazol-1-yl]-acetamid]
Second: COc1cc(C)c(S(=O)(=O)Cc2cc(C)n(CC(=O)NC3CCC(N4CCN(C)CC4)CC3(C)C)n2)c(C)c1 (stereo not drawn) [CC-163, N-[2,2-Dimethyl-4-(4-methyl-piperazin-1-yl)-cyclohexyl]-2-[3-[[(4-methoxy-2,6-dimethyl-phenyl)sulfonyl]-methyl]-5-methyl-1H-pyrazol-1-yl]-acetamid]
The inhibition at 10 µM of the first is higher: 100% for the first, 99% for the second.

First: COc1cc(C)c(S(=O)(=O)Cc2c(C)nn(CC(=O)NC3CCC(N4CCCC4)CC3)c2C)c(C)c1 (stereo not drawn) [CC-164, 2-[4-[[(4-Methoxy-2,6-dimethyl-phenyl)sulfonyl]-methyl]-3,5-dimethyl-1H-pyrazol-1-yl]-N-(4-pyrrolidin-1-yl-cyclohexyl)-acetamid]
Second: COc1cc(C)c(S(=O)(=O)Cc2c(C)nn(CC(=O)NC3CCC(N4CCCC4)CC3(C)C)c2C)c(C)c1 (stereo not drawn) [CC-170, N-(2,2-Dimethyl-4-pyrrolidin-1-yl-cyclohexyl)-2-[4-[[(4-methoxy-2,6-dimethyl-phenyl)sulfonyl]-methyl]-3,5-dimethyl-1H-pyrazol-1-yl]-acetamid]
The inhibition at 10 µM of the first is higher: 100% for the first, 99% for the second.

Compared with `COCCN1CCC(NC(=O)Cn2nc(C)c(CS(=O)(=O)c3c(C)cc(OC)cc3C)c2C)C(C)(C)C1` (stereo not drawn) [CC-165, 2-[4-[[(4-Methoxy-2,6-dimethyl-phenyl)sulfonyl]-methyl]-3,5-dimethyl-1H-pyrazol-1-yl]-N-[1-(2-methoxy-ethyl)-3,3-dimethyl-piperidin-4-yl]-acetamid], `COc1cc(C)c(S(=O)(=O)Cc2c(C)nn(CC(=O)NC3CCN(C(C)=O)CC3(C)C)c2C)c(C)c1` (stereo not drawn) [CC-179, N-(1-Acetyl-3,3-dimethyl-piperidin-4-yl)-2-[4-[[(4-methoxy-2,6-dimethyl-phenyl)sulfonyl]-methyl]-3,5-dimethyl-1 H-pyrazol-1-yl]-acetamid] is lower in inhibition at 10 µM: 100% for the first, 44% for the second.

`COc1cc(C)c(S(=O)(=O)Cc2c(C)nn(CC(=O)NC3CCC(N4CCN(C)CC4)CC3(C)C)c2C)c(C)c1` (stereo not drawn) [CC-166, N-[2,2-D imethyl-4-(4-methyl-piperazin-1-yl)-cyclohexyl]-2-[4-[[(4-methoxy-2,6-dimethyl-phenyl)sulfonyl]-methyl]-3,5-dimethyl-1 H-pyrazol-1-yl]-acetamid] and `COc1cc(C)c(S(=O)(=O)Cc2c(C)nn(CC(=O)NC3CCC(NC4CC4)CC3(C)C)c2C)c(C)c1` (stereo not drawn) [CC-174, N-[4-(Cyclopropylamino)-2,2-dimethyl-cyclohexyl]-2-[4-([(4-methoxy-2,6-dimethyl-phenyl)sulfonyl]-methyl]-3,5-dimethyl-1 H-pyrazol-1-yl]-acetamid] are the same in inhibition at 10 µM: 100% for the first, 100% for the second.

`COc1cc(C)c(S(=O)(=O)Cc2cn(CC(=O)NC3CCC(N4CCCC4)CC3)nn2)c(C)c1` (stereo not drawn) [CC-167, 2-[4-[[(4-Methoxy-2,6-dimethyl-phenyl)sulfonyl]-methyl]-1H-[1,2,3]triazol-1-yl]-N-(4-pyrrolidin-1-yl-cyclohexyl)-acetamid] and `COc1cc(C)c(S(=O)(=O)Cc2cn(CC(=O)NC3CCC(N(C)C)CC3)nn2)c(C)c1` (stereo not drawn) [CC-169, N-(4-Dimethylamino-cyclohexyl)-2-[4-[[(4-methoxy-2,6-dimethyl-phenyl)sulfonyl]-methyl]-1H-[1,2,3]triazol-1-yl]-acetamid] are the same in inhibition at 10 µM: 100% for the first, 100% for the second.

Going from `COc1cc(C)c(S(=O)(=O)Cc2c(C)nn(CC(=O)NC3CCC(N(C)C)CC3)c2C)c(C)c1` (stereo not drawn) [CC-168, N-(4-Dimethylamino-cyclohexyl)-2-[4-[[(4-methoxy-2,6-dimethyl-phenyl)sulfonyl]-methyl]-3,5-dimethyl-1 H-pyrazol-1-yl]-acetamid] to `COc1cc(C)c(S(=O)(=O)Cc2c(C)nn(CC(=O)NC3CCNCC3)c2C)c(C)c1` [CC-173, 2-[4-[[(4-Methoxy-2,6-dimethyl-phenyl)sulfonyl]-methyl]-3,5-dimethyl-1H-pyrazol-1-yl]-N-piperidin-4-yl-acetamid], the inhibition at 10 µM falls from 100% to 85%.

First: COc1cc(C)c(S(=O)(=O)Cc2cc(C)n(CC(=O)NC3CCNCC3(C)C)n2)c(C)c1 (stereo not drawn) [CC-171, N-(3,3-Dimethyl-piperidin-4-yl)-2-[3-[[(4-methoxy-2,6-dimethyl-phenyl)sulfonyl]-methyl]-5-methyl-1 H-pyrazol-1-yl]-acetamid]
Second: COc1cc(C)c(S(=O)(=O)Cc2c(C)nn(CC(=O)NC3CCNCC3(C)C)c2C)c(C)c1 (stereo not drawn) [CC-180, N-(3,3-Dimethyl-piperidin-4-yl)-2-[4-[[(4-methoxy-2,6-dimethyl-phenyl)sulfonyl]-methyl]-3,5-dimethyl-1 H-pyrazol-1-yl]-acetamid]
The inhibition at 10 µM of the first is lower: 71% for the first, 98% for the second.

`COc1cc(C)c(S(=O)(=O)Cc2c(C)nn(CC(=O)NC3CCC(c4ccncc4)CC3(C)C)c2C)c(C)c1` (stereo not drawn) [CC-172, N-(2,2-Dimethyl-4-pyridin-4-yl-cyclohexyl)-2-[4-[[(4-methoxy-2,6-dimethyl-phenyl)sulfonyl]-methyl]-3,5-dimethyl-1 H-pyrazol-1-yl]-acetamid] and `COc1cc(C)c(S(=O)(=O)Cc2cn(CC(=O)NC3CCC(c4ccncc4)CC3(C)C)nn2)c(C)c1` (stereo not drawn) [CC-178, N-(2,2-Dimethyl-4-pyridin-4-yl-cyclohexyl)-2-[4-[[(4-methoxy-2,6-dimethyl-phenyl)sulfonyl]-methyl]-1 H-[1,2,3]triazol-1-yl]-acetamid] are the same in inhibition at 10 µM: 100% for the first, 100% for the second.

First: COc1cc(C)c(S(=O)(=O)Cc2cn(CC(=O)NC3CCC(NC4CC4)CC3(C)C)nn2)c(C)c1 (stereo not drawn) [CC-175, N-[4-(Cyclopropylamino)-2,2-dimethyl-cyclohexyl]-2-[4-[[(4-methoxy-2,6-dimethyl-phenyl)sulfonyl]-methyl]-1 H-[1,2,3]triazol-1-yl]-acetamid]
Second: COc1cc(C)c(S(=O)(=O)Cc2cc(C)n(CC(=O)NC3CCC(NC4CC4)CC3(C)C)n2)c(C)c1 (stereo not drawn) [CC-177, N-[4-(Cyclopropylamino)-2,2-dimethyl-cyclohexyl]-2-[3-[[(4-methoxy-2,6-dimethyl-phenyl)sulfonyl]-methyl]-5-methyl-1 H-pyrazol-1-yl]-acetamid]
The inhibition at 10 µM of the first is higher: 100% for the first, 99% for the second.

`COc1cc(C)c(S(=O)(=O)Cc2cn(CC(=O)NC3CCNCC3(C)C)nn2)c(C)c1` (stereo not drawn) [CC-176, N-(3,3-Dimethyl-piperidin-4-yl)-2-[4-[[(4-methoxy-2,6-dimethyl-phenyl)sulfonyl]-methyl]-1 H-[1,2,3]triazol-1-yl]-acetamid] gave an inhibition at 10 µM of 100%.
